Assay results as given in patent publication US11559498B2, “Compositions and methods for in vivo lung and blood SNO repletion” (UNIVERSITY HOSPITALS CLEVELAND MEDICAL CENTER, priority 2020, dated 2023).

Key:
lung inflammation (BALF) = assay: Hyperoxic injury-induced lung inflammation in mice; type: in vivo
Description: (§1) 1. Mice are either placed in chambers where ambient oxygen and ENO levels (1-100 ppm) are controlled, or mice are ventilated as in 2. below.
Bronchoalveolar lavage fluid (BAL), cell and protein content, differential cell analysis, lung fixation and histological sectioning, were performed as previously described (Groves, Am. J. Respir Cell Mol. Biol. 47, 776-783 (2012); Lien Van Hoecke J Vis Exp. 2017; (123): 55398)).

GSNO levels in the lungs = GSNO levels in the lungs after inhalation of ENO; type: in vivo; details: FIG. 1A
Source text: as §1
(§2) 2. Large animals (pigs/dogs) are ventilated. ENO was mixed into the ventilation circuit using a custom-made gas-blending device (1-100 ppm). One hundred ppm ENO was selected as the maximum dose based on the amounts of metHb (<5%).
(§3) 3. Humans Each subject was fitted with an on-demand nonrebreather mask to regulate oxygen (FiO2) and ENO delivery. ENO was blended at 1-100 ppm.

SNO-Hb and muscle StO2 = assay: Hypoxic humans dosed with ENO: muscle oxygenation and SNO-Hb; type: in vivo; details: at study completion, FiO2 fixed at 0.12, FIG. 2
Source text: as §3
(§4) Photolysis-chemiluminescence was used to quantify RBC SNO-Hb levels before and during ENO exposure. Blood was obtained through arterial lines and venipuncture. Method of sample preparation and measurement is as described in Hausladen (ref: Hausladen A et al. Assessment of nitric oxide signals by triiodide chemiluminescence. Proc. Natl. Acad. Sci. U.S.A 104, 2157-2162 (2007)).

[1] = metHb during ventilation with ENO; type: in vivo, pigs/dogs; details: 100 ppm ENO (maximum dose), ventilated large animals
Source text: as §2

SNO-Hb = SNO-Hb levels in the blood of humans after inhalation of ENO; type: in vivo; details: FIG. 1B
Source text: as §3, §4

isolated human kidneys = assay: Isolated human kidneys treated with ENO
[2] = tested on: airway hyper-responsiveness; assay: Mouse airway hyper-responsiveness following hyperoxia; type: in vivo; details: hyperoxia 60% oxygen for 21 days, FIG. 6
[3] = cited from earlier work
[4] = tested on: porcine circovirus type 2 (PCV2); assay: PCV2 infection and replication; type: cell-based
lung injury = assay: Rat ischemia/reperfusion (IR) preparation, lung injury; type: in vivo

SMILES: CCON=O [ENO, ethyl nitrite]
- lung (BALF) leukocyte concentrations (lung inflammation (BALF); ENO for 8 days, FIG. 3A): decreased
- lung (BALF) neutrophil concentrations (lung inflammation (BALF); ENO for 8 days, FIG. 3A): decreased
- accumulation of cytokine-induced neutrophil chemoattractant-1 (lung inflammation (BALF); FIG. 3B): attenuated
- expression of cytokine-induced neutrophil chemoattractant-1 (lung inflammation (BALF); FIG. 3C): attenuated
- GSNO levels in the lungs over inhaled NO (GSNO levels in the lungs; inhalation of ENO compared with inhaled NO): several fold
- GSNO levels in the lungs (GSNO levels in the lungs; inhalation of ENO): significantly increases
- SNO-Hb levels (SNO-Hb and muscle StO2): doubled
- muscle StO2 (near infrared spectroscopy) (SNO-Hb and muscle StO2): at normoxic (prehypoxic) levels
- amounts of metHb [1]: < 5%
- SNO-Hb levels in the blood (SNO-Hb): significantly increases
- tissue SNO levels (isolated human kidneys; FIG. 4A): increased
- release of IL-10 (isolated human kidneys; FIG. 4B): increased
- level of IL-10 (isolated human kidneys; FIG. 4C): increased

SMILES: Cc1cc(C(N)=O)ccc1-n1c(CCC(=O)O)ccc1-c1ccc(-n2ccnc2)cc1 [N6022]
- airway hyper-responsiveness ([2]; ip administration): attenuated

SMILES: CC(=O)N[C@@H](CS)C(=O)O [N-acetylcysteine]
- solubility in chloroform and ether ([3]; chloroform and ether): practically insoluble
- solubility in water and alcohol ([3]; water and alcohol): soluble

SMILES: N[C@@H](CCC(=O)N[C@@H](CSN=O)C(=O)NCC(=O)O)C(=O)O [GSNO]
- infection of PCV2 ([4]; FIG. 7A): significantly reduces
- replication of PCV2 ([4]; FIG. 7B): significantly reduces
- lung injury (lung injury; FIG. 5A): significantly reduced
- expression of iNOS (lung injury; FIG. 5B): significantly reduced
- expression of NF-kappaB (lung injury; FIG. 5C): significantly reduced
- airway hyper-responsiveness ([2]; inhalation): attenuated
